Tests used:
A549 = assay: MTT cytotoxicity GI50, A549; type: cell-based; settings: Homo sapiens
Protocol: Cell proliferation was assessed by a MTT assay. Cancer cells were seeded in 96-well microtitre plates and, after overnight attachment, treated with GSTO1 inhibitors. After 72 h, MTT solution (3 mg ml^−1; 20 μl) was added to each well and cells were incubated for 3 h at 37 °C. After incubation, media from each well was removed and the dark blue formazan crystals formed by live cells were dissolved in DMSO (150 μl per well). The absorbance intensity was measured at 570 nm on a microplate reader (Molecular Devices, Sunnyvale, CA, USA). Cell viability after 24 h treatment was assessed using ApoTox-Glo triplex assay (Promega) according to the manufacturer's protocol. At least three independent dose–response experiments with each concentration tested in triplicate were performed for each cell line.

HCT116 xenografts = assay: HCT116 xenograft efficacy study
Protocol: In the pilot study, HCT116 cells (1 × 10^6) in exponential phase were injected subcutaneouslyinto the left flank of 8- to 10-week-old female nude mice (25–30 g; Simonsen laboratories, Gilroy, CA). The perpendicular diameters of the tumours were measured three times weekly using standard calipers and tumour volumes were calculated using the formula: 0.5 × D × d^2, where D and d were the longest and shortest perpendicular diameters, respectively. […] Tumour volumes and body weights were measured three times weekly to monitor tumour burden and weight loss during treatment. At the end of the experiment, animals were killed and tumour, kidney and liver were collected, fixed and paraffin-embedded for histology.

In the case of `CN(C)S(=O)(=O)c1cc(NC(=O)CCl)ccc1Cl` [C1-27], the GI50 (A549) is reported as 11.7 µM, the “tumour growth versus vehicle” value (HCT116 xenografts; 20–45 mg kg^−1 i.p., 5 weeks) is reported as “significantly inhibited” and the “dose generally well tolerated, no overt signs of toxicity” value (HCT116 xenografts; i.p.) is reported as “up to 45 mg kg^−1”.

— paper PMC5059489, “Mechanistic evaluation and transcriptional signature of a glutathione S-transferase omega 1 inhibitor” (Nature Communications, 2016)
